Three compounds from patent US20240115589A1, “PHARMACEUTICAL COMPOSITION FOR PREVENTING CYTOKINE STORM” (KINKI UNIVERSITY, priority 2021, published 2024) can be followed below.

Assay [1] has as its system TNFα. Briefly: LPS-stimulated TNFα production in mouse macrophages (ELISA). The format is cell-based. As to conditions: culture supernatant, then 10 μg/mL LPS 2 days, control 24.11, LPS alone 421.13 pg/mL. On the procedure:
The inhibitory effect of compounds on TNFα production involved in cytokine storm was examined using mouse macrophages.
Mouse macrophages were pre-cultured with RPMI1640 medium for 1 day. After incubation, mouse macrophages were treated with 10 μM mangiferin 8a, 10 μM norathyriol, 1 μM M9, and 1 μM M14 for 1 day. Then, 10 μg/mL LPS was added to mouse macrophages and cultured for 2 days. After incubation, the culture supernatant was collected and TNFα production was determined by enzyme-linked immunosorbent assay (ELISA). This measurement was performed using a mouse TNFα ELISA kit (R&D).
(In general: In an ELISA, binding on a coated surface is turned into a signal by an enzyme label.)

The subject of assay [2] is male C57BL/6J. Briefly: Survival rate of mice treated with compound and LPS (lethality in cytokine storm). As to conditions: C57BL/6J mice, 25 mg/kg LPS i.p. 5 min later, day 2, compared to LPS group. The format is in vivo. The procedure:
Six-week-old male C57BL/6J (SHIMIZU Laboratory Supplies Co., Ltd.) were orally administered 50 mg/kg mangiferin 8a, 100 mg/kg norathyriol, 50 mg/kg M9, and 50 mg/kg M14. Five minutes later, 25 mg/kg LPS was administered intraperitoneally. The day of administration was set as day 0, and the survival rate was measured on day 2.
Those not receiving the compound and LPS are referred to as the control group, those receiving 25 mg/kg LPS are referred to as the LPS group, those receiving 50 mg/kg mangiferin 8a and 25 mg/kg LPS are referred to as the mangiferin 8a-treated group, those receiving 100 mg/kg norathyriol and 25 mg/kg LPS are referred to as the norathyriol-treated group, those receiving 50 mg/kg M9 and 25 mg/kg LPS are referred to as the M9-treated group, and those receiving 50 mg/kg M14 and 25 mg/kg LPS are referred to as the M14-treated group.
Referring to FIG. 9, the horizontal axis indicates compound treatment, and the vertical axis indicates survival rate (%).

`CCC(=O)OC[C@H]1O[C@@H](c2c(O)cc3oc4cc(O)c(O)cc4c(=O)c3c2O)[C@H](OC(=O)CC)[C@@H](OC(=O)CC)[C@@H]1OC(=O)CC` [M9, 2′,3′,4′,6′-tetra-O-propionylmangiferin] registered a TNFα production in assay [1] (1 μM compound 1 day) of 58.13 pg/mL. In assay [2] (50 mg/kg oral), the survival rate entry was “significantly reduced the decrease in survival”.
For `CCCC(=O)OC[C@H]1O[C@@H](c2c(O)cc3oc4cc(O)c(O)cc4c(=O)c3c2O)[C@H](OC(=O)CCC)[C@@H](OC(=O)CCC)[C@@H]1OC(=O)CCC` [M14, 2′,3′,4′,6′-tetra-O-butyrylmangiferin], in that order: 54.13 pg/mL and “significantly reduced the decrease in survival”.
As to `O=c1c2cc(O)c(O)cc2oc2cc(O)cc(O)c12` [norathyriol, 1,3,6,7-tetrahydroxyxanthone], the TNFα production in assay [1] (10 μM compound 1 day) worked out at 68.13 pg/mL. For the same compound, the survival rate result in assay [2] (100 mg/kg oral) is given as “significantly reduced the decrease in survival”.
